# Reference: patent publication US11654138B2, “Therapeutic agents for treating and preventing autoimmune diseases and cancer and a screening method” (KING FAISAL UNIVERSITY, priority 2019, dated 2023)
# Tests used:
# IMQ-induced psoriasis = IMQ-induced psoriasis model; type: in vivo, male BALB/c mice; conditions: for Clinical scores (erythema and thickness of the right ear): topical ointment 40 mg/cm^2 day 0 to 8, vs Vaseline, FIG. 8A; for Il6 mRNA expression in whole biopsies of the right ear / Il17a mRNA expression in whole biopsies of the right ear: topical ointment, day 8, FIG. 8B
# Procedure: Experimental psoriasis was induced following a modified method described previously (Sun et al. 2013). To induce disease in male BALB/c mice (6-8 weeks; n=6), imiquimod (IMG; Sichuan Med-Shine Pharmaceutical) at 5% was applied topically at 20 mg/cm^2 on the inside of the right ear for 8 consecutive days. An evaluation system for assessment of erythema and thickness of the ear was developed. Erythema was assessed using a table with red […] (0-4) and ear thickness (0-4) measured using a digital caliber on days 2, 4, 6, and 8 after first IMQ application. The sum of the two parameters scores (ranging from 0-8) was used to indicate the overall clinical score. Treatment ointment was prepared by mixing 1 mg of DMSO-dissolved POE or its representative analogs including POE A2 or POE A3 with 20 gm of Vaseline Petroleum Jelly Original (vehicle, Unilever Inc.); the mixture was then incubated at room temperature overnight. From day 0 to day 8 the mice were treated topically with the treatment ointment (40 mg/cm^2) or Vaseline (IMQ/control). The mRNAs encoding Il6 and Il17a were isolated from whole biopsies of the ear (day 8) and reverse transcribed to make cDNA. The cDNA was then amplified by real-time PCR using TaqMan Gene Expression Assays (Mm00446190_ml, Mm00439618_ml, respectively; Applied Biosystems). The relative expression of mRNAs was calculated by the ΔΔCt method and presented relative to that of IMQ control mice.
# CIA = assay: Collagen-induced arthritis (CIA) model; type: in vivo, C57BL mice; conditions: for CIA clinical scores: 0.25 mg i.p. on days 0, 3, 6, 9, 12, 15, 18, vs corn oil, FIG. 7A; for Serum level of IL-6 / Frequency of CD4+IL-17+ cells in the secondary lymphoid organs: 0.25 mg i.p.; for Serum level of IL-6: day 45, FIG. 7B; for Frequency of CD4+IL-17+ cells in the secondary lymphoid organs: day 45, flow cytometry, FIG. 7C
SMILES,Clinical scores (erythema and thickness of the right ear) (IMQ-induced psoriasis),Il6 mRNA expression in whole biopsies of the right ear (IMQ-induced psoriasis),Il17a mRNA expression in whole biopsies of the right ear (IMQ-induced psoriasis),CIA clinical scores (CIA),Serum level of IL-6 (CIA),Frequency of CD4+IL-17+ cells in the secondary lymphoid organs (CIA)
"CC(=O)CSc1nnc(-c2cccnc2)o1 [POE A3, 2-Propanone, 1-[[5-(3-pyridinyl)-1,3,4-oxadiazol-2-yl]thio]-]",comparably reduced clinical scores,suppressed mRNA expression,suppressed mRNA expression,–,–,–
Cc1nnc(SCC(=O)c2ccccc2)o1 [POE A1],–,–,–,comparably reduced CIA clinical scores,reduced serum levels of IL-6,reduced the frequency of CD4^+IL-17^+ cells
"Cc1nnc(NCC(=O)c2ccccc2)s1 [POE A2, 2-[(5-methyl-1,3,4-thiadiazol-2-yl)amino]-1-phenylethan-1-one]",comparably reduced clinical scores,suppressed mRNA expression,suppressed mRNA expression,comparably reduced CIA clinical scores,reduced serum levels of IL-6,reduced the frequency of CD4^+IL-17^+ cells
